# According to patent US5919701A, “Oligonucleotides with activity against human immunodeficiency virus” (priority 1997, dated 1999):
# pIC50: −log10 of the molar value.
# Assays:
# [1] = test system: HIV-1 (LAI); assay: p24 assay, PBMC infected with HIV-1 (LAI); assay type: cell-based, HIV-1; PBMC
# [2] = test system: HIV-1 (LAI); assay: Plaque assay, HeLa-CD4 cells infected with HIV-1 (LAI); assay type: cell-based, HIV-1; HeLa-CD4 cells; details: HeLa-CD4, HIV-1 (LAI), plaques formed
# Protocol: (§1) HeLa-CD4 cells were tested using a plaque assay as described below. Specific cells (as described in Table 4) were detached using trypsin-EDTA for 8-10 minutes at 37° C. The cells were then centrifuged at 100 rpm for 10 minutes. Cells were resuspended in 5-10 ml of maintenance medium (Dulbecco's Modified Eagle Medium ("DMEM") containing 10% fetal calf serum, […], […], and 2 mM glutamine). Cells were maintained by splitting the culture once weekly into two 75 cm^2 T-flasks at a concentration of 3×10^4 cells/ml in a total volume of […] maintenance medium.
# (§2) On day 0, the cells were plated into the wells of a 24 well tissue culture plate (Falcon #3047) at a concentration of 2.4×10^4 cells per well. The cells were incubated overnight at 37° C. The next day the medium was aspirated, and 200 μl of HIV virus at a multiplicity of infection ("MOI") of 0.03 was added to each well. The plates were then incubated for 2 hours at 37° C. After the 2 hour incubation, the cells were treated with 800 μl of drug at a concentration (in DMEM) of 1.25× of the final concentration.
# (§3) The treated cells were incubated for 3 days at 37° C. On day 4 the plate was fixed with 1 ml/well of 100% methanol for 15 minutes. The wells were then aspirated and 0.5 ml of 0.3% crystal violet stain was added to the wells. […] Plaques were counted using a microscope. […]
# [3] = test system: replication defective HIV generated by 8e5 cells; assay: p24 production by 8e5 cells (p24 capture ELISA of cell lysates); assay type: cell-based, HIV; human T-cell line 8e5; details: for inhibiting p24 production (in words): summary of Table 3; for inhibition / p24 production: range over experiments
# Protocol: The effect of several phosphorothioate antisense oligonucleotides on HIV replication was determined by measuring p24 (an HIV-specific polypeptide) produced by 8e5 cells. The 8e5 cell line is a human T-cell line that generates replication defective HIV (Folks et al. U.S. Pat. No. 4,752,565). The defective HIV contains a single integrated provirus that expresses all HIV proteins at levels typically observed in chronically infected cell lines except those encoded by pol. This defect is due to a single base insertion that causes a frame shift mutation in pol.
# Oligonucleotides having phosphorothioate linkages were synthesized according to Bhatt supra. Synthesized oligonucleotides were purified using HPLC, extracted with ethyl acetate, ethanol precipitated, washed with 80% ethanol and suspended in sterile water to generate high concentration stock solutions that facilitated small volume addition (2-20 μl).
# Phosphorothioate antisense oligonucleotides were added directly to 8e5 cultures. Sterile water and non-specific phosphorothioate oligonucleotides were utilized as controls. The cultures were harvested after 4 days, and the viable cell count and production of p24 antigen were determined. Cell lysates were prepared by spinning down cells from 2 ml wells at 1000 rpm for 10 minutes at 4° C. using a Beckman J-10, and removing the supernatant. The cells were then washed with 5 ml of Hanks balanced salt solution (Gibco) or sterile saline solution (0.9% NaCl), and spun down at 1000 rpm for 10 minutes at 4° C. using a Beckman J-10. The cells were resuspended in 300 μl of TSM (10 mM Tris-HCl pH 7.5, 150 mM NaCl, 2 MM MgCl2) with 0.5% NP-40, and incubated on ice for 5 minutes. The nuclei and cellular debris were then spun down at 2000 rpm using a Beckman J-10. The amount of p24 antigen was determined in cell lysates using a p24 capture ELISA (American Biotechnologies, Inc.).
# The ELISA assay for p24 was selected as a measure of HIV replication because expression of tat and rev are required for efficient p24 production. The percentage of HIV p24 production was calculated as p24/cell production by antisense treated cells divided by p24/cell production by control treated cells. Control treated cells were treated with a random control phosphorothioate oligonucleotide (SEQ. ID. NO. 47: AGGCTTCATCACGTGGACATTGACG).
# [4] = test system: HIV-2 (ROD); assay: Plaque assay, HeLa-CD4 cells infected with HIV-2 (ROD); assay type: cell-based, HIV-2; HeLa-CD4 cells; details: HeLa-CD4, HIV-2 (ROD), plaques formed
# Protocol: as §1, §2, §3
# [5] = test system: HIV patient isolates (PO22); assay: Plaque assay, HeLa-CD4 cells infected with patient isolates (PO22); assay type: cell-based, HIV; HeLa-CD4 cells; details: plaques formed
# Protocol: as §1, §2, §3
# [6] = test system: human bone marrow cells; assay: Cytotoxicity: colony formation of human bone marrow cells; assay type: cell-based; details: agar medium with G-CSF, eight days in culture
# Protocol: The cytotoxicity of the test oligonucleotides was determined in a system using primary human blood cells using techniques known to those of skill in the art to measure cytotoxicity of anti-neoplastic agents. Human bone marrow cells were harvested and washed in an isotonic solution, then incubated in tissue culture medium containing 0.3% (w/v) agar, 20% (v/v) fetal calf serum, and 10 ng/ml granulocyte-colony stimulating factor with varying amounts of the two test oligonucleotides. The number of colonies formed were measured after eight days in culture. The IC50 for colony formation in this experiment was 2-3 μM for SEQ. ID. NO: 18 and 20-30 μM for SEQ. ID. NO: 22.
# [7] = test system: HIV patient isolates (AO18); assay: Plaque assay, HeLa-CD4 cells infected with patient isolates (AO18); assay type: cell-based, HIV; HeLa-CD4 cells; details: plaques formed
# Protocol: as §1, §2, §3
# [8] = In vivo mouse study: blood parameters, body weight and organ morphology; details: mice, 100 mg/kg
# Protocol: In vivo experiments were also performed using rodent models. These experiments focused on the potential for gross morphological changes in blood tissue upon administration of a phosphorothioate linked oligonucleotide having the nucleic acid sequence of SEQ. ID. NO: 18 (in a solution of PBS). Three mice were given the oligonucleotide at a dose of 100 mg/kg body weight. Four control mice were given PBS alone. Blood samples were taken from each animal at t=0, and at 24 hours each animal was sacrificed and the organs removed. The experimental findings with regard to blood parameters are shown in Table 5, and the results obtained upon visual inspection of the organs are shown in Table 6.
# [9] = 2 μM, 4 days, Table 2, relative to cells treated with random control oligonucleotide SEQ. ID. NO. 47
# [10] = 10 μM, 4 days, Table 2, relative to cells treated with random control oligonucleotide SEQ. ID. NO. 47
# [11] = 10 μM, Table 3 (small length oligonucleotides)
# [12] = 20 μM, Table 3 (small length oligonucleotides)
compound,measurement,setting,value
"Cc1cn([C@H]2C[C@H](N=[N+]=[N-])[C@@H](CO)O2)c(=O)[nH]c1=O [AZT, reference compound]",pIC50,[1]; Human immunodeficiency virus 1,8.52
same,pIC50,[2]; Human immunodeficiency virus 1,7.70 to 8.15
ATTGGTACAAGCAGTTTTAGGCT (ATTGGTACAAGCAGTTTTAGGCT; chemistry not given here) [SEQ. ID. NO. 31],% p24 production,[3]; [9],100%
same,% p24 production,[3]; [10],15%
CGGGCCTGTCGGGTCCCCTCGGGA (CGGGCCTGTCGGGTCCCCTCGGGA; chemistry not given here) [SEQ. ID. NO. 36],% p24 production,[3]; [9],71%
same,% p24 production,[3]; [10],89%
GGGCCTGTCGGGTCCCCTCGGG (GGGCCTGTCGGGTCCCCTCGGG; chemistry not given here) [SEQ. ID. NO. 29],% p24 production,[3]; [11],79%
same,% p24 production,[3]; [12],58%
same,inhibiting p24 production (in words),[3],particularly effective
GCTTCTTCCTGCCATAGGAGA (GCTTCTTCCTGCCATAGGAGA; chemistry not given here) [SEQ. ID. NO. 33],% p24 production,[3]; [9],109%
same,% p24 production,[3]; [10],74%
TTGGGAGGTG GGTTGCTTTG (TTGGGAGGTGGGTTGCTTTG; chemistry not given here) [SEQ. ID. NO. 14],% p24 production,[3]; [9],103%
same,% p24 production,[3]; [10],66%
CTTCGGGCCTGTCGGGTCCCCTCGGG (CTTCGGGCCTGTCGGGTCCCCTCGGG; chemistry not given here) [SEQ. ID. NO. 18],% p24 production,[3]; [9],55%
same,% p24 production,[3]; [10],0%
same,inhibition,[3],70-100%
same,p24 production,[3],0 to 30%
same,pIC50,[4],7.74
same,pIC50,[1],6.92
same,pIC50,[5]; AZT Resistant,7.74
same,pIC50,[5]; AZT Sensitive,7.35
same,pIC50,[6],5.52 to 5.70
same,pIC50,[2],6.70
same,pIC50,[7]; AZT Resistant,7.26
same,pIC50,[7]; AZT Sensitive,7.10
same,HGB,[8]; 0 hr,16.0 ± 0.2 g/dL
same,PLT,[8]; 0 hr,111.8 ± 2.7 ×10^4 /μl
same,RBC,[8]; 0 hr,1032.3 ± 8.1 ×10^4 /μl
same,WBC,[8]; 0 hr,94.7 ± 18.2 ×10^2 /μl
same,Body Weight,[8]; 24 hours,Unchanged
same,"Morphological findings, Bone Marrow","[8]; 24 hours, visual inspection",Normal
same,"Morphological findings, Heart","[8]; 24 hours, visual inspection",Normal
same,"Morphological findings, Kidney","[8]; 24 hours, visual inspection",Normal
same,"Morphological findings, Liver","[8]; 24 hours, visual inspection",Normal
same,"Morphological findings, Spleen","[8]; 24 hours, visual inspection",Slight Splenomegaly
same,"Morphological findings, Thymus","[8]; 24 hours, visual inspection",Normal
same,HGB,[8]; 24 hr,15.3 ± 0.5 g/dL
same,PLT,[8]; 24 hr,99.4 ± 0.9 ×10^4 /μl
same,RBC,[8]; 24 hr,990.3 ± 34.3 ×10^4 /μl
same,WBC,[8]; 24 hr,79.3 ± 15.3 ×10^2 /μl
ATTCTGCTATGTCGACACCCAA (ATTCTGCTATGTCGACACCCAA; chemistry not given here) [SEQ. ID. NO. 46],% p24 production,[3]; [11],87%
same,% p24 production,[3]; [12],81%
same,inhibiting p24 production (in words),[3],effective
GCCTGTCGGG TCCT (GCCTGTCGGGTCCT; chemistry not given here) [SEQ. ID. NO. 20],% p24 production,[3]; [11],55%
same,% p24 production,[3]; [12],42%
same,inhibiting p24 production (in words),[3],particularly effective
GCCTATTCTGCTATGTCGACACCCAA (GCCTATTCTGCTATGTCGACACCCAA; chemistry not given here) [SEQ. ID. NO. 35],% p24 production,[3]; [9],56%
same,% p24 production,[3]; [10],0%
same,inhibition,[3],70-100%
same,p24 production,[3],0 to 30%
GAGCTCTTCGTCGCTGTCTCCGCTTCT (GAGCTCTTCGTCGCTGTCTCCGCTTCT; chemistry not given here) [SEQ. ID. NO. 17],% p24 production,[3]; [9],99%
same,% p24 production,[3]; [10],56%
CTGTCGGGTC CCCTCGGG (CTGTCGGGTCCCCTCGGG; chemistry not given here) [SEQ. ID. NO. 26],% p24 production,[3]; [12],44%
same,inhibiting p24 production (in words),[3],particularly effective
GCCTGTCGGG TCCC (GCCTGTCGGGTCCC; chemistry not given here) [SEQ. ID. NO. 22],% p24 production,[3]; [11],3%
same,% p24 production,[3]; [12],31%
same,inhibiting p24 production (in words),[3],particularly effective
same,pIC50,[6],4.52 to 4.70
